Assay results: patent US12673927B2, “Substituted aminothiazoles as DGKzeta inhibitors for immune activation” (Deutsches Krebsforschungszentrum, priority 2020, dated 2026)
Like-named read-outs stand apart in the source and are kept apart here.

Molecular target: T1, human DGKζ (Homo sapiens, UniProt Q13574)
T1 construct: made in house; host or cells: Sf9 insect cells, baculovirus
Assay: Human DGKζ kinase activity inhibition assay (ADP-Glo)
Assay type: biochemical
Experimental: Human DGKζ Kinase Activity Inhibition Assay
Human diacylglycerol kinase zeta (DGKζ) inhibitory activity of compounds of the present invention was quantified employing the human DGKζ kinase activity assay as described in the following paragraphs. In essence, the enzyme activity was measured by quantification of the adenosine-di-phosphate (ADP) generated as a co-product of the enzyme reaction via the “ADP-Glo™ Kinase Assay” kit from the company Promega. This detection system works as follows: In a first step the adenosine-tri-phosphate (ATP) not consumed in the kinase reaction is quantitatively converted to cyclic adenosine-mono-phosphate (cAMP) employing an adenylate cyclase (“ADP-Glo-reagent”), then the adenylate cyclase is stopped and the ADP generated in the kinase reaction is converted to ATP, which subsequently generates in a luciferase-based reaction a glow-luminescence signal (“Kinase Detection Reagent”).
C-terminally FLAG-tagged, recombinant full-length human DGKζ (inhouse expressed in baculovirus infected insect cells, purified using anti-Flag pulldown and size exclusion chromatography) was used as enzyme. As an alternative, commercially available enzyme by Carnabio can be used. As substrate for the kinase, 1,2-dioleoyl-sn-glycerol, reconstituted in octyl-β-D-glucopyranoside micelles, was used. […] Subsequently, 22.55 volumes of a 510 mM solution of octyl-β-D-glucopyranoside (Sigma-Aldrich, Cat. #08001-10G) in 50 mM MOPS buffer (pH 7.4) were added, and the mixture was sonicated in an ultrasonic bath for 20 s. Then 35 volumes of 50 mM MOPS buffer (pH 7.4) were added to yield a solution of 0.28 mM 1,2 dioleoyl-sn-glycerol and 200 mM octyl-β-D-glucopyranoside, which was aliquoted, flash-frozen in liquid nitrogen, and stored at −20° C. until use.
For the assay 50 nl of a 100-fold concentrated solution of the test compound in dimethyl sulfoxide (DMSO, Sigma) was pipetted into either a white 1536-well or a white low-volume 384-well microtiter plate (both Greiner Bio-One, Frickenhausen, Germany). […] The concentration of DGKζ was adjusted depending of the activity of the enzyme lot and was chosen appropriate to have the assay in the linear range, a typical concentration is about 0.1 nM. The reaction was stopped by the addition of 2.5 μL of “ADP-Glo-reagent” (1 to 1.5 diluted with water) and the resulting mixture was incubated at 22° C. for 1 h to convert the ATP not consumed in the kinase reaction completely to cAMP. Subsequently 2.5 μl of the “kinase detection reagent” (1.2 fold more concentrated than recommended by the producer) were added, the resulting mixture was incubated at 22° C. for 1 h and then the luminescence measured with a suitable measurement instrument (e.g. Viewlux™ from Perkin-Elmer). The amount of emitted light was taken as a measure for the amount of ADP generated and thereby for the activity of the DGKζ.
The data were normalised (enzyme reaction without inhibitor=0% inhibition, all other assay components but no enzyme=100% inhibition).

[1] = recombinant full-length human DGKζ, 55 μM ATP, 7 μM 1,2-dioleoyl-sn-glycerol, 20 min at 22° C., read-out: IC50 in vitro human DGKζ kinase activity inhibition assay
[2] = intermediates (lacking the R2 side chain; comparative), highest test concentration 20 μM, read-out: IC50 values of intermediates in in vitro human DGKζ kinase activity inhibition assays

T1 sequence (Q13574 with tags, fused parts or gaps): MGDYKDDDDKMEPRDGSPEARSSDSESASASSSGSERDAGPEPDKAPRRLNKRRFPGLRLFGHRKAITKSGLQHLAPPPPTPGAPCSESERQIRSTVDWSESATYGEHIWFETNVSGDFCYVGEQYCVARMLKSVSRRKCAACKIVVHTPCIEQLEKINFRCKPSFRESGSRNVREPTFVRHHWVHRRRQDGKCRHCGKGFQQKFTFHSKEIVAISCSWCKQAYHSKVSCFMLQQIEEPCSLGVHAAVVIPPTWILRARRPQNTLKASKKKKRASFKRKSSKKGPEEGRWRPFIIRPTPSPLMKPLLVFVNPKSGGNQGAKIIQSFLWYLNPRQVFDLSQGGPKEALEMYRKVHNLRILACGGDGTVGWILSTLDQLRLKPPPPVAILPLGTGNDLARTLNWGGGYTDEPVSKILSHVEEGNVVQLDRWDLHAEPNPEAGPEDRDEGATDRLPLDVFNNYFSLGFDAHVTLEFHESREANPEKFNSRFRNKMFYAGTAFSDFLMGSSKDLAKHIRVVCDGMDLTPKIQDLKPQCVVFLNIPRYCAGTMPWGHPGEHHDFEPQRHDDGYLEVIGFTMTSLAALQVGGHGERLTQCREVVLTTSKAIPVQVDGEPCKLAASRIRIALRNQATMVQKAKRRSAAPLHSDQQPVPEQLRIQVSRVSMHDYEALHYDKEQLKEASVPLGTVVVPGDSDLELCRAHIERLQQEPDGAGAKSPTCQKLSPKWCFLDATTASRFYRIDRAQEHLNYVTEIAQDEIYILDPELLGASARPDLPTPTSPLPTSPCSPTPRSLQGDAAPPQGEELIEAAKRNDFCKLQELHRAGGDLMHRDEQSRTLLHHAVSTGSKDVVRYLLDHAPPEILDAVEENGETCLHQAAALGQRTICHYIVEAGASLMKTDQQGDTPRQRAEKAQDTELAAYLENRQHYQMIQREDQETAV

Row | IC50 [1] | IC50 [2] | SMILES
1 | 7.37 nM | – | CC(C(N)=O)N(c1ccc(F)cc1)c1nc(N)c(C(=O)c2ccc(Cl)cc2)s1 (single isomer, unassigned) [Example 38.2, 2-(N-[4-amino-5-(4-chlorobenzoyl)thiazol-2-yl]-4-fluoro-anilino)propanamide]
2 | 372 nM | – | CNC(=O)COc1ccc(C(=O)c2sc(N(c3ccc(F)cc3)C(C)C(N)=O)nc2N)cc1 (single isomer, unassigned) [Example 150, 2-(N-[4-amino-5-[4-[2-(methylamino)-2-oxo-ethoxy]benzoyl]thiazol-2-yl]-4-fluoro-anilino)propanamide]
3 | 21.6 nM | – | CC(C(N)=O)N(c1ccc(F)cc1)c1nc(N)c(C(=O)c2ccc(OCC(=O)Nc3ccc(C(N)=O)cc3)cc2)s1 (single isomer, unassigned) [Example 146, 4-([2-[4-[4-amino-2-(4-fluoro-N-[2-amino-1-methyl-2-oxo-ethyl]anilino)thiazole-5-carbonyl]phenoxy]acetyl]amino]benzamide]
4 | – | > 20000 nM | COc1ccc(Nc2nc(N)c(C(=O)c3ccccc3)s2)cc1 [Example 67]
5 | – | > 20000 nM | Nc1nc(Nc2ccc(F)cc2)sc1C(=O)c1ccccc1 [Example 62]
6 | 2310 nM | – | NC(=O)CN(c1ccc(F)cc1)c1nc(N)c(C(=O)c2ccccc2)s1 (racemic) [Example 71]
7 | 5 nM | – | CC(C(N)=O)N(c1ccc(F)c(F)c1)c1nc(N)c(C(=O)c2ccc(OC(F)F)nc2)s1 (single isomer, unassigned) [Example 163.1, 2-(N-[4-amino-5-[6-(difluoromethoxy)pyridine-3-carbonyl]thiazol-2-yl]-3,4-difluoro-anilino)propanamide]
8 | 387 nM | – | CNC(=O)COc1ccc(C(=O)c2sc(N(c3ccc(F)cc3)C(C)C(N)=O)nc2N)cc1 (single isomer, unassigned) [Example 151, 2-(N-[4-amino-5-[4-[2-(methylamino)-2-oxo-ethoxy]benzoyl]thiazol-2-yl]-4-fluoro-anilino)propanamide]
9 | – | > 20000 nM | Nc1nc(Nc2ccc(F)cc2)sc1C(=O)c1ccc(F)cc1 [Example 65]
